Assay results as given in patent US20200368364A1, “CYSTEINE PEPTIDE-ENABLED ANTIBODIES” (City of Hope, priority 2016, published 2020).

Experiments:
[1] = test system: mutated I83 trastuzumab memAb (I83 mutated to glutamate); experiment: SPR of meditope peptide variants binding to immobilized memAb variant; settings: SPR at 37° C.; original meditope; vs original trastuzumab memAb
Protocol: FIG. 3A-3H. […] FIG. 3E-H) SPR sensograms collected at 37° C.

[2] = test system: cetuximab or the meditope-enabled trastuzumab; experiment: Lifetime of the meditope-Fab interaction; type: binding; settings: 37° C.
Text: Since the cyclic, twelve residue peptide binds in a hole that runs through the middle of the Fab arm, Applicants have named it a meditope. Antigen binding is not altered after grafting or in the presence of the meditope^14-15. As such, Applicants understood that they could use the meditope interaction as a hitch for the delivery of cytotoxins, imaging agents, or biologics. […] Applicants further improved the lifetime by creating a mechanical bond by modifying the arginine at position 8 with an azide, threading it through the Fab hole, and using click chemistry to sterically block its dissociation. While the lifetime of this mechanically interlocked Fab complex is difficult to ascertain, Applicants were capable of imaging tumors in animal xenografts.

[3] = test system: SKBR3 cells; experiment: Cell viability (CellTiter-Glo) for DM1 and MMAE conjugates; type: cell-based; settings: 72 h, read-out: EC50 (cell viability / lysis)

Row | Substance | increase in affinity with I83 mutated to glutamate [1] | lifetime of the meditope peptide on the Fab [2] | EC50 [3]
1 | Ac-CQFDLSTRRLKC-Am (Ac-CQFDLSTRRLKC-NH2; not fully specified (bridges); printed as Ac-CQFDLSTRRLKC-Am; also: cyclic, kind not given here) [original meditope, serine at position 6] | ~25 | seconds | –
2 | trastuzumab emtansine [clinical DM1] | – | – | 0.093 nM
